In PubChem BioAssay AID651630 (Sanford-Burnham Center for Chemical Genomics, 2012):
pIC50: −log10 of the molar value. Calls of active or inactive are those of the source.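 The calls were made as follows: active = lipid-stain IC50 at or below a set limit, with nuclear-stain toxicity IC50 at least five times higher; inactive = the rest.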

Assays:
DAPI = assay: triacylglycerol accumulation inhibitor potency, dose response, cell-based, panel, Nile Red and DAPI fluorescence, H9c2 (AID 651630); conditions: H9c2 cells, DAPI nuclear fluorescence (cytotoxicity counter-readout), oleic acid;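 also: cells exposed to compound overnight before fixation and staining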
TAG = assay: as above; conditions: H9c2 cells, Nile Red TAG fluorescence, oleic acid

SMILES	IC50 cytotoxicity (DAPI nuclear signal decrease) (DAPI; run 1) [µM]	IC50 cytotoxicity (DAPI nuclear signal decrease) (DAPI; run 2) [µM]	pIC50 (TAG; mean of runs)	pIC50 (TAG; run 1)	pIC50 (TAG; run 2)	IC50 cytotoxicity (DAPI nuclear signal decrease) (DAPI; mean of runs)	IC50 (TAG; mean of runs)
COCCN1Cc2cccc(C(=O)Nc3cccc(-c4nc5ccccc5[nH]4)c3)c2C1=O	> 25	> 25	5.71	5.90	5.58		
COc1ccccc1NC(=O)N1CCC(c2nc3cc(C)c(C)cc3[nH]2)CC1	> 25	> 25		< 4.60	< 4.60	> 25 µM (inactive)	> 25 µM (inactive)
Cc1ccc2c(c1)N(C(=O)CCC(=O)NCCCN1CCC(Cc3ccccc3)CC1)CCO2	20.2	24.3		4.71	4.75	22.3 µM (inactive)	18.7 µM (inactive)
CCCCCCSc1ccc([C@H]2N[C@@](CC(C)C)(C(=O)OC)[C@H]3C(=O)N(C)C(=O)[C@@H]23)cc1OC	> 25	> 25		< 4.60	< 4.60	> 25 µM (inactive)	> 25 µM (inactive)
COc1cc2c(c(OC)c1OC)-c1ccc(OC)c(=O)cc1C(NC(=O)c1ccccc1)CC2 (configuration not stated)	> 25	> 25		4.91	< 4.60	> 25 µM (inactive)	
O=C(NCc1nnnn1-c1ccc(F)cc1)c1ccc([N+](=O)[O-])o1	11.8	11.9		4.66	4.80	11.8 µM (inactive)	18.9 µM (inactive)
COc1cccc(/C=C/C(=C2/C(=O)N(c3ccccc3)N=C2C)c2ccc(C)cc2)c1OC	> 25	> 25	5.79	5.78	5.79		
O=C(OCc1ccc(Br)cc1)c1cc([N+](=O)[O-])ccc1N1CCOCC1	> 25	> 25		< 4.60	< 4.60	> 25 µM (inactive)	> 25 µM (inactive)
COc1cccc(N=Nc2c(O)[nH]c(=S)[nH]c2=O)c1	6.31	> 25		< 4.60	< 4.60		> 25 µM (inactive)
CCOC(=O)c1[nH]c2ccc(OCC)cc2c1NC(=O)CN1CCN(c2ccccc2)CC1	> 25	> 25		4.69	4.60	> 25 µM (inactive)	22.7 µM (inactive)
NC1=NC[C@H](Cc2ccccc2)N1CCc1cc(C(F)(F)F)cc(C(F)(F)F)c1	> 25	> 25		< 4.60	< 4.60	> 25 µM (inactive)	> 25 µM (inactive)
Cc1ccc(Cc2nnc(SCC(=O)Nc3ccccc3)n(N)c2=O)cc1	> 25	> 25	5.04	5.07	5.01	> 25 µM (inactive)	
CCOC(=O)C(C)Oc1cccc2c(=O)n(CC(=O)NCc3ccc4c(c3)OCO4)ccc12 (configuration not stated)	> 25	> 25		4.74	4.75	> 25 µM (inactive)	18 µM (inactive)
Cc1ccc(NC(=O)Cn2nnc(-c3ccccc3NC(=O)c3cccs3)n2)cc1	> 25	> 25	5.24	5.13	5.40	> 25 µM (inactive)	
Nc1c(Cl)cc(-c2csc(N3CCCC3c3nc4cc(Cl)c(N5CCCCC5)cc4n3CCOCCO)n2)cc1Cl (configuration not stated)	> 25	> 25	4.94	4.93	4.95	> 25 µM (inactive)	
O=C1Nc2ccc(Br)cc2/C1=N\N=C\C1=C(N2CCOCC2)C(=C/c2ccccc2)/CC1	> 25	> 25	6.05	6.08	6.02		
CCN1CCN(Cc2ccc(NC(=O)c3cc(NC(=O)c4cc5cccc(OC)c5o4)cc(OC)c3)cc2C(F)(F)F)CC1	> 25	> 25	4.86	4.89	4.82	> 25 µM (inactive)	
